In ChEMBL document CHEMBL1142776, “In vitro binding of leukotriene B4 (LTB4) to human serum albumin: evidence from spectroscopic, molecular modeling, and competitive displacement studies” (Bioorg Med Chem Lett, 2005):

Target: Albumin (Homo sapiens, UniProt P02768)
Test: In vitro Ka value against human serum albumin; N=1

Chain of Albumin (P02768 whole entry): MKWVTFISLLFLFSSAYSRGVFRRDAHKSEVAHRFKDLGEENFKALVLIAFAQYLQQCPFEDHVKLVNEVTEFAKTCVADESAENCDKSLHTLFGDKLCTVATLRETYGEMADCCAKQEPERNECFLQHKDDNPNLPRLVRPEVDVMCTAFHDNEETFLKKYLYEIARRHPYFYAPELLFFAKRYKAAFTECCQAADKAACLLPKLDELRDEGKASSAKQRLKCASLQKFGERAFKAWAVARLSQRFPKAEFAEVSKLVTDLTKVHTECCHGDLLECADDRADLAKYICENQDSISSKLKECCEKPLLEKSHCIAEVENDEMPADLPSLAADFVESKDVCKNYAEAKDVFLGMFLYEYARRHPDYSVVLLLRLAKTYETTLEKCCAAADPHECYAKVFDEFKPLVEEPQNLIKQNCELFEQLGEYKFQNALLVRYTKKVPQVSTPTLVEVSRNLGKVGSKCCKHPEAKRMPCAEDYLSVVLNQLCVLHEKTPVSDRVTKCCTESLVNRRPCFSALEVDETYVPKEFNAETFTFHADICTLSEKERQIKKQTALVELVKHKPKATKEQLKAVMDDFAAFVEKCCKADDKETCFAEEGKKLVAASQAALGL

Ka: 67000 M⁻¹
Compound: CCCCC/C=C\C[C@@H](O)/C=C/C=C/C=C\[C@@H](O)CCCC(=O)O [LEUKOTRIENE_B4]
